From US20020026052A1, “3-cyanoquinolines, 3-cyano-1,6-naphthyridines, and 3-cyano-1,7-naphthyridines as protein kinase inhibitors” (American Home Products Corporation, priority 2000, published 2002)
Values joined by “and” are separate entries in the source; they are usually repeats but may differ in a detail not shown here. Equal entries are not always repeated.

Tests used:
[1] = target: Rat2 fibroblasts stably transformed with v-Src/Hu c-Src fusion gene (Homo sapiens, UniProt P12931, cells depend on it, form not given); assay: Anchorage Independent Src-transformed Fibroblast Proliferation Assay; type: cell-based, Rat; conditions: suspension growth, MTS reagent on Day 5; read-out: anch-indep src-tx fib IC50
Experimental: Anchorage Independent Src-transformed Fibroblast Proliferation Assay
Rat2 fibroblasts stably transformed with a plasmid containing a CMV promotor controlled v-Src/Hu c-Src fusion gene in which the catalytic domain of human c-Src was inserted in place of the v-Src catalytic domain in the v-Src gene are used for the measurement of src dependent suspension growth. […] Multiple entries for a given compound indicate that it was tested multiple times.

Chain of Rat2 fibroblasts stably transformed with v-Src/Hu c-Src fusion gene (P12931 whole entry, change not shown, the tested form may be a part): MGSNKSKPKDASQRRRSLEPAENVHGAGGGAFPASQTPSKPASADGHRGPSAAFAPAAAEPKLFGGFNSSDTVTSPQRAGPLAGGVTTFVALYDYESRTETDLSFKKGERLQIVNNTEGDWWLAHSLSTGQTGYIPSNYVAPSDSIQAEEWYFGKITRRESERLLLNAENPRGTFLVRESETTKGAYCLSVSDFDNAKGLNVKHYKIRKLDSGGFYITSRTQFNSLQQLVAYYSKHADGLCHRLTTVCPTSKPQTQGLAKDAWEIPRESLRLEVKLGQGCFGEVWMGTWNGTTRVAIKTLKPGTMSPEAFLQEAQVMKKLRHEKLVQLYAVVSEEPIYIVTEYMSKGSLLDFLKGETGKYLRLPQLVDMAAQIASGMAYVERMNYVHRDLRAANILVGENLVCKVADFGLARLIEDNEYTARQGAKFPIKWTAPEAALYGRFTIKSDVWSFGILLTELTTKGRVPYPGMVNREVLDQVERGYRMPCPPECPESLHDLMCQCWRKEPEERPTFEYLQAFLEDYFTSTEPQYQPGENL

SMILES	GI50 [1]	melting point
COc1ccc(-c2ccc3c(Nc4cc(OC)c(Cl)cc4Cl)c(C#N)cnc3c2)cc1 [Example 194, 4-(2,4-Dichloro-5-methoxyanilino)-7-(4-methoxyphenyl)-3-quinolinecarbonitrile]	> 10 µM	210 to 212 °C
COc1cc(Nc2c(C#N)cnc3cc(-c4ccc(CNCCc5ccccn5)cc4)ccc23)c(Cl)cc1Cl [Example 229, 4-(2,4-Dichloro-5-methoxyanilino)-7-[4-({[2-(2-pyridinyl)ethyl]amino}-methyl)phenyl]-3-quinolinecarbonitrile]	0.45 µM	256 to 258 °C
COc1cc(Nc2c(C#N)cnc3cc(-c4ccc(C=O)cc4)ccc23)c(Cl)cc1Cl [Example 83, 4-(2,4-dichloro-5-methoxyanilino)-7-(4-formylphenyl)-3-quinolinecarbonitrile]	3.9 µM	248 to 251 °C
COc1cc(Nc2c(C#N)cnc3cc(-c4ccc(C=O)n4C)ccc23)c(Cl)cc1Cl [Example 69, 4-(2,4-Dichloro-5-methoxyanilino)-7-(5-formyl-1-methyl-1H-pyrrol-2-yl)-3-quinolinecarbonitrile]	> 10 µM	200 °C (dec.)
CCOC(=O)C1CCCCN1Cc1ccc(-c2ccc3c(Nc4cc(OC)c(Cl)cc4Cl)c(C#N)cnc3c2)cc1 (centres unmarked) [Example 145, Ethyl 1-{4-[3-cyano-4-(2,4-dichloro-5-methoxyanilino)-7-quinolinyl]benzyl}-2-piperidinecarboxylate]	> 10 µM	78 to 80 °C
COc1cc(Nc2c(C#N)cnc3cc(-c4ccc(C(=O)O)cc4)ccc23)c(Cl)cc1Cl [Example 121, 4-[3-Cyano-4-(2,4-dichloro-5-methoxyanilino)-7-quinolinyl]benzoic acid]	> 10 µM	282 to 283 °C
N#Cc1cnc2cc(C#CCCCN3CCOCC3)ccc2c1Nc1ccc(Cl)cc1Cl [Example 11, 4-(2,4-Dichloroanilino)-7-[5-(4-morpholinyl)-1-pentynyl]-3-quinolinecarbonitrile]	> 10 µM	131 to 133 °C
N#Cc1cnc2cc(C=CCCCN3CCOCC3)ccc2c1Nc1ccc(Cl)cc1Cl (mixture of isomers) [Example 12, 4-(2,4-Dichloroanilino)-7-[(E/Z)-5-(4-morpholinyl)-1-pentenyl]-3-quinoline-carbonitrile]	> 10 µM	70 to 72 °C

Other lines, results leading:

GI50 [1]	melting point	SMILES
0.13 µM	185 to 187 °C	COc1cc(Nc2c(C#N)cnc3cc(-c4csc(CN5CCOCC5)c4)ccc23)c(Cl)cc1F [Example 79, 4-{2-Chloro-4-fluoro-5-methoxyanilino)-7-[5-(4-morpholinylmethyl)-3-thienyl]-3-quinolinecarbonitrile]
0.25 µM	182 to 183 °C	COc1cc(Nc2c(C#N)cnc3cc(-c4ccc(CN5CCOCC5)o4)ccc23)c(Cl)cc1Cl [Example 53, 4-(2,4-Dichloro-5-methoxyanilino)-7-[5-(4-morpholinylmethyl)-2-furyl]-3-quinolinecarbonitrile]
0.57 µM	160 to 163 °C	COc1ccc(Cl)c(Nc2c(C#N)cnc3cc(-c4ccc(CN5CCOCC5)cc4)ccc23)c1 [Example 236, 4-(2-Chloro-5-methoxyanilino)-7-[4-(4-morpholinylmethyl)phenyl]-3-quinolinecarbonitrile]
0.5 µM and 0.52 µM	248 to 251 °C	COc1cc(Nc2c(C#N)cnc3cc(-c4ccc(CN5CCS(=O)(=O)CC5)cc4)ccc23)c(Cl)cc1Cl [Example 150, 4-[(2,4-Dichloro-5-methoxyphenyl)amino]-7-{4-[(1,1-dioxido-4-thiomorpholinyl)methyl]phenyl}-3-quinolinecarbonitrile]
0.27 µM	232 to 234 °C	CCN1CCN(c2ccc(-c3ccc4c(Nc5cc(OC)c(Cl)cc5Cl)c(C#N)cnc4c3)nc2)CC1 [Example 179, 4-[(2,4-Dichloro-5-methoxyphenyl)amino]-7-[5-(4-ethyl-1-piperazinyl)-2-pyridinyl]-3-quinolinecarbonitrile]
